Source: the NIST ThermoML archive (doi:10.1016/j.jct.2014.07.018)

Assay: molar heat capacity at constant pressure
Conditions: 101.33 kPa, Vacuum adiabatic calorimetry

CCCCn1cc[n+](C)c1.[I-] [1-butyl-3-methylimidazolium iodide]
molar heat capacity at constant pressure [J/K/mol]
Conditions	Crystal	Liquid
210.52 K	184.6	–
211.87 K	185.5	–
212.03 K	–	285.8
212.55 K	185.9	–
213.91 K	186.8	–
214.19 K	–	286.4
214.58 K	187.2	–
215.94 K	188.1	–
216.37 K	–	286.6
216.61 K	188.6	–
217.97 K	189.5	–
218.54 K	–	287.1
218.63 K	190.1	–
219.99 K	191	–
220 K	191	287.3
220.66 K	191.6	–
220.72 K	–	287.4
222.01 K	192.5	–
222.11 K	–	287.7
222.67 K	193	–
222.9 K	–	287.9
224.03 K	194	–
224.39 K	–	288.2
224.69 K	194.5	–
225.09 K	–	288.5
226.04 K	195.5	–
226.56 K	–	288.5
226.7 K	196	–
226.71 K	–	288.5
227.28 K	–	288.7
227.61 K	196.7	–
228.05 K	197.1	–
228.71 K	197.5	–
228.74 K	–	289
228.79 K	–	289
229.47 K	–	289.3
229.61 K	198.3	–
230 K	198.5	289.4
230.06 K	198.5	–
230.71 K	198.9	–
230.77 K	–	289.5
230.93 K	–	289.5
231.61 K	199.7	–
231.66 K	–	289.8
232.06 K	200	–
232.71 K	200.6	–
232.76 K	–	289.8
233.11 K	–	290.1
233.61 K	201.3	–
233.72 K	–	290.1
233.86 K	–	290.3
234.06 K	201.7	–
234.71 K	202	–
234.74 K	–	290.3
235.3 K	–	290.6
235.61 K	202.8	–
235.72 K	–	290.6
236.05 K	203.2	290.9
236.7 K	203.6	–
236.72 K	–	290.9
237.48 K	–	291.1
237.6 K	204.3	–
237.71 K	–	291.1
238.04 K	204.8	–
238.25 K	–	291.4
238.69 K	205.3	–
238.71 K	–	291.4
239.6 K	205.9	–
239.67 K	–	291.7
